The structures appear in SMILES notation.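 Cultured in 96-well plates, cells were exposed to test compound for 48 hours across five concentrations. GI50 marks 50% less growth. The concentration for full growth arrest is given as TGI.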

Data on nine compounds can be found in PubChem BioAssay (NCI).

Among the test systems are HCC-2998 colon; SK-MEL-28 melanoma; SK-MEL-5 melanoma; CCRF-CEM leukemia; SF-295 CNS; UACC-62 melanoma; UACC-257 melanoma; K-562 leukemia; HL-60(TB) leukemia; DU-145 prostate; SNB-75 CNS; SK-MEL-2 melanoma; NCI-H226 lung.
Common to all, as to assay: NCI tumour cell line growth inhibition, 48 h

Turning to `CCOc1ncn(-c2ccc(NC(=S)Nc3cccc(O)c3)cc2)n1`, the TGI in the assay on HCC-2998 colon, with SK-MEL-28 melanoma, with SK-MEL-5 melanoma, in the assay with CCRF-CEM leukemia, in the assay on SF-295 CNS and in the assay with UACC-62 melanoma was over 100 µM throughout. Also, the TGI in the assay on UACC-257 melanoma, in the assay on K-562 leukemia, in the assay on HL-60(TB) leukemia, in the assay on DU-145 prostate and in the assay on SNB-75 CNS was over 100 µM throughout.

Consider `COC[C@H]1C(=O)NCC(=O)N2NCCC[C@H]2C(=O)N(O)[C@H](C)C(=O)O[C@@H](C(C)C)[C@H](NC(=O)[C@](C)(O)[C@]2(O)CC[C@@H](CC(C)C)[C@H](C)O2)C(=O)N2NCCC[C@@H]2C(=O)N1O`, for which the GI50 in the assay on SK-MEL-28 melanoma is under 0.01 µM; with UACC-62 melanoma, 0.0154 µM; in the assay with SK-MEL-2 melanoma it was 0.0152 µM; in the assay with UACC-257 melanoma, 0.015 µM; in the assay on HL-60(TB) leukemia it was 0.0151 µM; with DU-145 prostate, under 0.0114 µM. Also, the GI50 with SNB-75 CNS was under 0.01 µM. For the same compound, the TGI with SK-MEL-28 melanoma was found to be 0.0221 µM; in the assay on UACC-62 melanoma, 0.0312 µM; in the assay with SK-MEL-2 melanoma it was 0.0304 µM; in the assay with UACC-257 melanoma, 0.0292 µM; with HL-60(TB) leukemia, 0.0399 µM; in the assay with DU-145 prostate, 0.0232 µM. The TGI in the assay on SNB-75 CNS was determined as 0.011 µM.

With `CC1(C)CCc2c(cc3c(c2O)CCC(C)(C)O3)O1`, the TGI with HCC-2998 colon, with NCI-H226 lung, in the assay on SK-MEL-28 melanoma, in the assay on SK-MEL-5 melanoma, with CCRF-CEM leukemia and in the assay with SF-295 CNS was over 100 µM each time. The TGI in the assay with UACC-62 melanoma was over 100 µM; with SK-MEL-2 melanoma it was 98.3 µM; in the assay with UACC-257 melanoma it was over 100 µM; with K-562 leukemia, over 100 µM; in the assay on HL-60(TB) leukemia, 77.9 µM; with DU-145 prostate, over 100 µM. The TGI with SNB-75 CNS was over 100 µM.

Turning to `Cc1ccc(OP2(=O)Oc3ccc4ccccc4c3CN2c2ccc(Cl)cc2)cc1C` (stereo not drawn), the TGI in the assay with HCC-2998 colon, in the assay with NCI-H226 lung, with SK-MEL-28 melanoma, with SK-MEL-5 melanoma, in the assay with CCRF-CEM leukemia and in the assay with SF-295 CNS was over 100 µM each time. In addition, the TGI in the assay with UACC-62 melanoma, with SK-MEL-2 melanoma, with UACC-257 melanoma, in the assay with K-562 leukemia, in the assay with HL-60(TB) leukemia and with SNB-75 CNS was over 100 µM each time.

`C=C/C(C)=C/[C@H](C)C(=O)C[C@H](O)CC1CC(=O)NC(=O)C1`: the TGI is over 100 µM in the assay with HCC-2998 colon; over 100 µM in the assay on NCI-H226 lung; over 91.8 µM in the assay with SK-MEL-28 melanoma; over 100 µM in the assay on SK-MEL-5 melanoma; over 100 µM in the assay with CCRF-CEM leukemia; over 100 µM in the assay with SF-295 CNS. Also, the TGI in the assay on UACC-62 melanoma is over 100 µM; with SK-MEL-2 melanoma, over 100 µM; in the assay with UACC-257 melanoma, 97.9 µM; in the assay with K-562 leukemia, over 100 µM; with HL-60(TB) leukemia it was over 100 µM; in the assay with SNB-75 CNS, over 100 µM.

In the case of `COc1ccc2c(O)c3[n+](cc2c1OC)CCc1cc2c(cc1-3)OCO2`, the TGI with HCC-2998 colon, with NCI-H226 lung, in the assay on SK-MEL-5 melanoma, in the assay on CCRF-CEM leukemia, in the assay on SF-295 CNS and with UACC-62 melanoma was over 100 µM in each case. Also, the TGI in the assay on SK-MEL-2 melanoma, in the assay on UACC-257 melanoma, with K-562 leukemia, in the assay with HL-60(TB) leukemia, in the assay on DU-145 prostate and in the assay with SNB-75 CNS was over 100 µM throughout.

As for `Nc1cc2c(cc1[N+](=O)[O-])[nH]c1c(-c3ccccc3)nccc12`, the TGI in the assay with HCC-2998 colon was 31.5 µM; in the assay on NCI-H226 lung it was 56.5 µM; in the assay with SK-MEL-28 melanoma, 87.3 µM; in the assay on SK-MEL-5 melanoma it was 31.7 µM; in the assay on CCRF-CEM leukemia, 74.7 µM; in the assay with SF-295 CNS it was 53.4 µM. Further, the TGI was 27.8 µM in the assay with UACC-62 melanoma; 38.2 µM in the assay with SK-MEL-2 melanoma; 42.4 µM with UACC-257 melanoma; over 100 µM in the assay with K-562 leukemia; 42.1 µM in the assay on HL-60(TB) leukemia; 55.7 µM with SNB-75 CNS.

Consider `COc1ccc(C(=O)C2CC3(CCC2(O)c2ccc(OC)cc2)CC(=O)Nc2ccccc2C3=O)cc1` (stereo not drawn), for which the TGI in the assay with HCC-2998 colon, in the assay with NCI-H226 lung, with SK-MEL-5 melanoma, with CCRF-CEM leukemia, in the assay on SF-295 CNS and in the assay with UACC-62 melanoma was over 100 µM each time. Moreover, the TGI in the assay on SK-MEL-2 melanoma, in the assay with UACC-257 melanoma, in the assay on K-562 leukemia, in the assay with HL-60(TB) leukemia, with DU-145 prostate and in the assay with SNB-75 CNS was over 100 µM throughout.

In the case of `CO/C(=N\N=C(/C)C(F)(F)F)c1ccncc1`, the TGI with NCI-H226 lung, in the assay on SK-MEL-28 melanoma, in the assay with SK-MEL-5 melanoma, in the assay with CCRF-CEM leukemia, with UACC-62 melanoma and in the assay on SK-MEL-2 melanoma was over 100 µM in each case. Also, the TGI in the assay on K-562 leukemia, with HL-60(TB) leukemia, with DU-145 prostate and with SNB-75 CNS was over 100 µM each time.
